Data: patent US10184115B2, “Mutated cellobiose dehydrogenase with increased substrate specificity” (DIRECTSENS GMBH, priority 2012, dated 2019)

Biological target: T1, Myriococcum thermophilum cellobiose dehydrogenase (CDH, SEQ ID NO: 1) variant R622N (Thermothelomyces myriococcoides, UniProt A9XK88, R622N)
T1 sequence (A9XK88 22-828 R622N): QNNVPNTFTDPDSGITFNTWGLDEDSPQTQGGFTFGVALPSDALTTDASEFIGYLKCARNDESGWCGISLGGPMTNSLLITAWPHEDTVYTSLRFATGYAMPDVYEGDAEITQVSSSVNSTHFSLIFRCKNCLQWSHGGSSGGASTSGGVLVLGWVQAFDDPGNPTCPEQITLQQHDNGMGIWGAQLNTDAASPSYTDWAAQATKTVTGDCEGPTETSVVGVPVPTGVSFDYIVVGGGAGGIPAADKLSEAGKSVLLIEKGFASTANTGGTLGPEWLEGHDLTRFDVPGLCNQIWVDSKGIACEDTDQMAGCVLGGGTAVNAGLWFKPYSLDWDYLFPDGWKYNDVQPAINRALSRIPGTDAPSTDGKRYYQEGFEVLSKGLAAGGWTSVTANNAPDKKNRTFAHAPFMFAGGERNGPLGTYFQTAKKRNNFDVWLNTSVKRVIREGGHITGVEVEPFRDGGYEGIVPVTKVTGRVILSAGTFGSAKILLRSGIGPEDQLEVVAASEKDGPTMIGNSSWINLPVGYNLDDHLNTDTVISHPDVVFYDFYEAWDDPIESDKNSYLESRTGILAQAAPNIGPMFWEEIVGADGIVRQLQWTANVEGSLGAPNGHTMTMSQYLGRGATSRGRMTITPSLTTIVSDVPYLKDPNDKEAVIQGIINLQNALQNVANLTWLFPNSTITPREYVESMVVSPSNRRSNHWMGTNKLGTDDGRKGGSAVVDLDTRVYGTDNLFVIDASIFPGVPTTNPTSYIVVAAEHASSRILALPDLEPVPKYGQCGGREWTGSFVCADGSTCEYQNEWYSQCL
Experiment: Steady-state kinetics, DCIP assay: M. thermophilum CDH R622N
Assay type: biochemical
Conditions: apparent, pH 4.5, 30° C.
Procedure: Enzyme activity was assayed at 30° C. using either the DCIP (Karapetyan et al., 2005 Journal of Biotechnology 121: 34-48) or cytochrome c (Canevascini et al., 1991, European Journal of Biochemistry 198: 43-52) as electron acceptor. […] Stock solutions of carbohydrates used for kinetic measurements were prepared in the respective buffer and allowed to stand overnight for mutarotation, while stock solutions of electron acceptors were prepared in water and immediately used. The reaction stoichiometry is 1 for the two-electron acceptor DCIP (1 mole of DCIP reduced per mole of carbohydrate oxidized), but 2 for the one-electron acceptor cytochrome c. Kinetic constants were calculated by fitting the observed data to the Henri-Michaelis-Menten equation or to the adapted model for substrate inhibition using nonlinear least-squares regression and the program SigmaPlot (Systat Software, San Jose, Calif., USA). […]
Recombinant wild-type CDH as well as variants were produced in 1 L baffled flasks. […] Increase in activity was monitored using the DCIP and the cytochrome c enzyme assays. […]
The sample was loaded on a 20 mL PHE Sepharose FF column (HR26/20) equilibrated with 50 mM Na-acetate buffer pH 5.5 containing 20% ammonium sulfate. […] Fractions were tested for CDH activity and pooled according to the highest Reinheitszahl (RZ, calculated from the absorbance ratio 420 nm/280 nm). […]

OC[C@H]1O[C@H](O[C@H]2[C@H](O)[C@@H](O)C(O)O[C@@H]2CO)[C@H](O)[C@@H](O)[C@@H]1O (stereo partly shown) [Maltose, maltose]
kcat/KM: 5.2 M⁻¹ s⁻¹
